The results in this text go back to ChEMBL document CHEMBL3301361, “Experimental in vitro DMPK and physicochemical data on a set of publicly disclosed compounds”.

The data set can be described thus: physchem. The settings on record: pH 7.4 buffer.

≈ marks a conversion by molar mass, not a printed value.

For the molecule `O=S(=O)(NCCNC/C=C/c1ccc(Br)cc1)c1cccc2cnccc12`, the solubility (thermodynamic) (as a rule, the concentration in solution at equilibrium with solid) was found to be 61.7 µM (≈ 27.5 µg/mL).
As for `O=C(NC1C2CC3CC(C2)CC1C3)[C@H]1CCCN1Cc1ccc(Cl)cc1` (stereo not given in full), the figure is 21.4 µM (≈ 7.98 µg/mL); as for `O=C(O)c1csc(NC(=O)C(CC2CCCC2)c2ccc(Cl)c(Cl)c2)n1` (stereo not given), 34.7 µM (≈ 14.3 µg/mL).
The molecule `CC(C)Oc1cccc(NC(=O)c2ccc3cc(C(=N)N)ccc3c2)c1` came in with a thermodynamic solubility of 64.6 µM (≈ 22.4 µg/mL).
For `COc1cccc(C(=O)N2CCC(C(=O)c3ccc(F)cc3)CC2)c1` the value was 58.9 µM (≈ 20.1 µg/mL); for `O=C(c1ccc(F)cc1)C1CCN(C(=O)c2ccccc2Cl)CC1`, 28.8 µM (≈ 9.96 µg/mL); for `Cc1ccc(C(=O)N2CCC(C(=O)c3ccc(F)cc3)CC2)cc1`, 20.4 µM (≈ 6.64 µg/mL).
The molecule `O=C(NCc1ccccc1)c1cccn(Cc2ccccc2)c1=O` displayed a solubility (thermodynamic) of 26.3 µM (≈ 8.37 µg/mL).
As for `Cc1cc2oc(=O)cc(Cn3ccnc3)c2cc1C`, the solubility (thermodynamic) was found to be 33.9 µM (≈ 8.62 µg/mL).
For `COc1ccc2oc(=O)c(C(C)=O)cc2c1`, the solubility (thermodynamic) stood at 49 µM (≈ 10.7 µg/mL).
For `Clc1ccc(-c2cn3cccnc3n2)cc1` the value was 20 µM (≈ 4.59 µg/mL).
`O=C(c1ccc(Cl)cc1)C1CCN(C(=O)c2ccccc2)CC1` yielded a thermodynamic solubility of 29.5 µM (≈ 9.67 µg/mL).
As for `COCCOc1cc2nccc(Nc3ccc(Cl)cc3F)c2cc1OC`, the figure is 33.9 µM (≈ 12.8 µg/mL); as for `CN(C)C(=O)c1nnsc1Sc1ccc(Cl)cc1`, 31.6 µM (≈ 9.47 µg/mL).
`Cc1cnc(NC(=O)CSc2nnc(C)s2)s1` came in with a thermodynamic solubility of 70.8 µM (≈ 20.3 µg/mL).
As for `O=C(c1ccccc1)C1CCN(C(=O)c2ccc(Cl)cc2)CC1`, the figure is 28.8 µM (≈ 9.44 µg/mL).
As for `Cc1ccc2nc(-c3ccccc3)cc(O)c2c1`, the figure is 22.9 µM (≈ 5.39 µg/mL); as for `CC(C)(C)OC(=O)N1CCC[C@H]1C(=O)Nc1ccc(Br)cc1`, 23.4 µM (≈ 8.64 µg/mL); as for `Cc1cccc(C)c1NC(=O)N1CCC(C(=O)c2ccc(F)cc2)CC1`, 18.6 µM (≈ 6.59 µg/mL).
Turning to `COc1ccc(Cl)c(Nc2ncnc3cc(OCCCN4CCOCC4)c(OC)cc23)c1`, the solubility (thermodynamic) is 72.4 µM (≈ 33.2 µg/mL).
As for `CC1(C)C(=O)N(c2ccc(SC(F)(F)F)cc2)C(=O)N1Cc1ccncc1`, the figure is 43.7 µM (≈ 17.3 µg/mL).
`Cc1ccccc1N(C)c1ccnc(Nc2cc(N3CCOCC3)cc(N3CCOCC3)c2)n1` gave a thermodynamic solubility of 30.9 µM (≈ 14.2 µg/mL).
For `COc1cc(Oc2ccc(C(=O)NCc3ccncc3)cc2)ccc1[N+](=O)[O-]` the value was 21.4 µM (≈ 8.12 µg/mL); for `CN(C(=O)Cc1ccc(Br)cc1)C1CCN(CCC(c2ccccc2)c2ccccc2)CC1`, 21.9 µM (≈ 11.1 µg/mL); for `COc1cc(C2CCNCC2)ccc1Nc1ncc(Cl)c(-c2cnc3ccccn23)n1`, 44.7 µM (≈ 19.4 µg/mL).
In the case of `COc1ccc(N2CCNCC2)cc1Nc1ncc(Cl)c(-c2cnc3ccccn23)n1`, the solubility (thermodynamic) stood at 69.2 µM (≈ 30.2 µg/mL).
Regarding `O=C(Nc1cccc(O)c1)c1ccc(OCCCN2CCCC2)cc1OC1CCCC1`, the thermodynamic solubility amounted to 58.9 µM (≈ 25 µg/mL).
In the case of `O=C(Nc1ccccc1)c1ccc(OCCCN2CCCC2)cc1OCc1ccccc1`, the solubility (thermodynamic) was 61.7 µM (≈ 26.6 µg/mL).
In turn, `N#Cc1ccccc1COc1cc(OCCCN2CCCC2)ccc1C(=O)Nc1ccccc1` came in with a solubility (thermodynamic) of 34.7 µM (≈ 15.8 µg/mL).
The molecule `CCN(C(=O)NCc1cccc(C)c1)C1CCN(CCC(c2ccccc2)c2ccccc2)CC1` showed a thermodynamic solubility of 70.8 µM (≈ 33.3 µg/mL).
`CC(C)Oc1cc(OCc2ccccc2F)cc(C(=O)Nc2ccc(C(=O)O)cn2)c1` showed a thermodynamic solubility of 61.7 µM (≈ 26.2 µg/mL).
For the molecule `COc1cccc(NC(=O)Cn2cc(Oc3ccnc4cc(OC)c(OC)cc34)cn2)c1`, the thermodynamic solubility amounted to 66.1 µM (≈ 28.7 µg/mL).
As for `CCn1ccc(NC(=O)Cc2ccc(Oc3ncnc4cc(OC)c(OC)cc34)cc2)n1`, the figure is 32.4 µM (≈ 14 µg/mL); as for `CCn1cc(NC(=O)Cc2ccc(Oc3ncnc4cc(OC)c(OC)cc34)cc2)cn1`, 24 µM (≈ 10.4 µg/mL).
As for `CC(C)Oc1cc(OCC2CCCC2)cc(C(=O)Nc2ccc(C(=O)O)cn2)c1`, the figure is 45.7 µM (≈ 18.2 µg/mL).
In turn, `CCN(C(=O)Cc1ccc(S(C)(=O)=O)cc1)C1CCN(CC[C@@H](c2ccccc2)C2CCN(S(=O)(=O)C(F)(F)F)CC2)CC1` came in with a solubility (thermodynamic) of 56.2 µM (≈ 37 µg/mL).
Molecule `COc1ccc(Cl)c(Nc2ncnc3cc(OCCN4CCN(C(C)=O)CC4)cc(OC(C)C)c23)n1` registered a solubility (thermodynamic) of 42.7 µM (≈ 22 µg/mL).
As for `COc1cnc(Cl)c(Nc2ncnc3cc(OCCN4CCN(C(C)=O)CC4)cc(OC(C)C)c23)n1`, the figure is 22.4 µM (≈ 11.6 µg/mL); as for `O=c1cc(-c2ccccc2)[nH]c2c(Cl)cccc12`, 30.9 µM (≈ 7.9 µg/mL); as for `CS(=O)(=O)Cc1cc(N2CCOCC2)nc(-c2cnc3[nH]ccc3c2)n1`, 47.9 µM (≈ 17.9 µg/mL).
In turn, `NC1(c2ccc(-c3nn4cccc4cc3-c3ccccc3)cc2)CCC1` yielded a solubility (thermodynamic) of 26.3 µM (≈ 8.93 µg/mL).
For `CN1CCN(CCCOc2cc(OC3CCOCC3)c3c(Nc4ccc(F)c(Cl)c4)ncnc3c2)CC1` the value was 38 µM (≈ 20.1 µg/mL); for `COc1ccc(C(=O)Nc2ccccc2)cc1`, 18.2 µM (≈ 4.14 µg/mL).
As for `CC(C)C(NC(=O)c1cnoc1C(C)(C)C)C(=O)c1ccc(C#N)cc1` (stereo not given), the figure is 20 µM (≈ 7.07 µg/mL); as for `COc1cc2ncnc(Nc3cccc(Cl)c3F)c2cc1CN(C)C1(C(N)=O)CN(C)C1`, 51.3 µM (≈ 23.5 µg/mL); as for `NC(=O)Nc1sc(-c2ccc(Cl)c(Cl)c2)cc1C(=O)N[C@H]1CCCNC1`, 66.1 µM (≈ 27.3 µg/mL).
As for `CC(C)(C)OC(=O)N1CCC(c2ncc(OCc3ccc(S(C)(=O)=O)cc3)cn2)CC1`, the figure is 61.7 µM (≈ 27.6 µg/mL); as for `C[C@@H](O)C(=O)N1CC=C(c2c(F)cc(N3C[C@H](COc4ccon4)OC3=O)cc2F)CC1`, 25.1 µM (≈ 11.3 µg/mL); as for `COc1ccc(NCc2ccc(C(=O)Nc3ccccc3N)cc2)cc1OC`, 57.5 µM (≈ 21.7 µg/mL).
Consider `c1ccc(-c2nc[nH]c2-c2ccccc2)cc1`, for which the thermodynamic solubility came to 22.9 µM (≈ 5.04 µg/mL).
Molecule `CN1CCC(c2cc(N3CCOCC3)nc(-c3cccc4[nH]ccc34)n2)(S(C)(=O)=O)CC1` displayed a solubility (thermodynamic) of 21.4 µM (≈ 9.75 µg/mL).
As for `Cc1cc(C)cc(-c2[nH]c3sc(C(C)(C)C(=O)N4C5CCC4CC5)cc3c2C(=O)CN2CCN(CC(=O)N3CCCC3)CC2)c1`, the figure is 70.8 µM (≈ 44.6 µg/mL); as for `Cc1ccc(Oc2ccc(Nc3ncnc4cccc(O[C@H](C)C(=O)N(C)C)c34)cc2C)cn1`, 22.9 µM (≈ 10.5 µg/mL).
As for `C[C@@H](Oc1cccc2ncnc(Nc3ccc4c(cnn4Cc4cscn4)c3)c12)C(=O)N(C)C`, the figure is 43.7 µM (≈ 20.7 µg/mL); as for `C[C@H](Oc1cccc2ncnc(Nc3ccc4c(cnn4Cc4cscn4)c3)c12)C(=O)N(C)C`, 42.7 µM (≈ 20.2 µg/mL); as for `NC(=O)Nc1sc(-c2ccc(F)cc2)cc1C(N)=O`, 67.6 µM (≈ 18.9 µg/mL).
`N#Cc1cccnc1-c1ccc(C(=O)Nc2ccccc2N)cc1` showed a thermodynamic solubility of 35.5 µM (≈ 11.2 µg/mL).
In turn, `C[C@@H](Oc1cccc2ncnc(Nc3ccc4c(cnn4Cc4nccs4)c3)c12)C(=O)N(C)C` came in with a solubility (thermodynamic) of 29.5 µM (≈ 14 µg/mL).
For `C[C@H](Oc1cccc2ncnc(Nc3ccc4c(cnn4Cc4nccs4)c3)c12)C(=O)N(C)C` the value was 31.6 µM (≈ 15 µg/mL); for `Oc1cc(-c2ccccc2)nc2c(O)cccc12`, 41.7 µM (≈ 9.89 µg/mL); for `COc1cc2c(Nc3ccc(Br)cc3F)ncnc2cc1OCCCN1CCN(C)CC1`, 41.7 µM (≈ 21 µg/mL).
`COc1cc(-c2nn[nH]n2)ccc1Cn1ncc2ccc(NC(=O)OC3CCCC3)cc21` showed a thermodynamic solubility of 43.7 µM (≈ 18.9 µg/mL).
As for `O=C(O)c1cc2c(Cl)cccc2n1Cc1ccc(Cl)c(Cl)c1`, the figure is 66.1 µM (≈ 23.4 µg/mL).
`COc1cc2c(Nc3c(Cl)ccc4c3OCO4)ncnc2cc1OCCCN1CCOCC1` came in with a solubility (thermodynamic) of 70.8 µM (≈ 33.5 µg/mL).
As for `CC(C)Oc1cc(OCCc2ccccc2)cc(C(=O)Nc2ccc(C(=O)O)cn2)c1`, the solubility (thermodynamic) came out at 28.8 µM (≈ 12.1 µg/mL).
For `O=c1[nH]c2cc(Cl)c([N+](=O)[O-])cc2c(O)c1-c1ccccc1`, the thermodynamic solubility came to 29.5 µM (≈ 9.34 µg/mL).
`COc1ccc(Cl)c(Nc2ncnc3cc(OCCCN4CCN(C(C)=O)CC4)cc(OC(C)C)c23)n1`: the solubility (thermodynamic) worked out at 50.1 µM (≈ 26.5 µg/mL).
As for `CC(C)CCn1c(Cn2c(=O)n(C3CC3)c(=O)c3ccccc32)nc2cc(CN)ccc21`, the figure is 70.8 µM (≈ 30.6 µg/mL); as for `Cc1cc(C)cc(-c2[nH]c3sc(C(C)(C)C(=O)N4C5CCC4CC5)cc3c2CCN2CCC(C(=O)N3CCOCC3)C(C)C2)c1` (stereo not given), 33.1 µM (≈ 20.9 µg/mL).
As for `Nc1ccccc1NC(=O)c1ccc(N2CCN(Cc3ccccc3)CC2)cc1`, the figure is 28.2 µM (≈ 10.9 µg/mL); as for `COc1ccc(Cl)c(Nc2ncnc3cc(OCCN4CCOCC4)cc(OC(C)C)c23)n1`, 26.9 µM (≈ 12.7 µg/mL).
For `COc1cc2ncnc(Nc3cccc(Cl)c3F)c2cc1CN(C)C1(C(N)=O)CN(C(C)C)C1` the value was 25.7 µM (≈ 12.5 µg/mL); for `Cc1ccc(Oc2ccc(Nc3ncnc4cccc(O[C@@H](C)C(=O)N(C)C)c34)cc2C)cn1`, 26.3 µM (≈ 12 µg/mL).
Take `Cc1ccc(Oc2ccc(Nc3ncnc4cccc(O[C@@H](C)C(=O)N5CCOCC5)c34)cc2C)cn1`: the thermodynamic solubility stood at 31.6 µM (≈ 15.8 µg/mL).
For `CC(C)n1c2ccc(F)cc2c2cc(NC(=O)N3CCOCC3)ccc21` the value was 34.7 µM (≈ 12.3 µg/mL).
For `COC1CCN(C(=O)C2CCN(CCc3c(-c4cc(C)cc(C)c4)[nH]c4sc(C(C)(C)C(=O)N5C6CCC5CC6)cc34)CC2)C1` (stereo not given) the value was 70.8 µM (≈ 44.7 µg/mL); for `COc1ccc(-c2cc(N)c(C(N)=O)s2)cc1`, 30.9 µM (≈ 7.67 µg/mL); for `CS(=O)(=O)c1cccc(Nc2nccc(Nc3c(Cl)ccc4c3OCO4)n2)c1`, 30.2 µM (≈ 12.6 µg/mL).
For `COCCNS(=O)(=O)c1ccc(Nc2nccc(-c3cnc(C)n3C3CCCC3)n2)cc1` the value was 53.7 µM (≈ 24.5 µg/mL); for `COCCN(C)S(=O)(=O)c1ccc(Nc2nccc(-c3cnc(C)n3C)n2)cc1`, 56.2 µM (≈ 23.4 µg/mL); for `Cc1ncc(-c2ccnc(Nc3ccc(N4CCOCC4)cc3)n2)n1C(C)C`, 56.2 µM (≈ 21.3 µg/mL).
Take `CC(C)c1cc(C(=O)N[C@@H](Cc2cccc(Cl)c2)C(=O)NCC#N)n(C)n1`: the thermodynamic solubility turned out to be 47.9 µM (≈ 18.6 µg/mL).
Take `N=C(N)c1ccc2cc(C(=O)Nc3ccc4c(c3)OCO4)ccc2c1`: the thermodynamic solubility was 44.7 µM (≈ 14.9 µg/mL).
As for `CC(C)OC(=O)c1cn(Cc2c(F)cccc2F)c2sc(-c3ccc(NC(=O)C(C)C)cc3)c(CN(C)Cc3ccccc3)c2c1=O`, the figure is 38 µM (≈ 25 µg/mL).
As for `CN(C)CCNS(=O)(=O)c1ccc(Nc2nccc(-c3cnc4ccccn34)n2)cc1`, the figure is 30.9 µM (≈ 13.5 µg/mL).
